The test system of the first assay is M. tuberculosis H37Rv-GFP. The assay is described as follows: microbe, parasite or virus in culture. It is filed as cell-based, Mycobacterium tuberculosis. The note with it: Mycobacterium tuberculosis, H37RV, Macrophage, read-out: Primary QIM % Inhibition.
The inhibition is the drop in the measured response relative to a control, in per cent. Turning to `COc1cccc(OCCNC(=O)c2cc([N+](=O)[O-])cc([N+](=O)[O-])c2)c1` [IPK 000 027 77], the inhibition at 20 µM came to 89.1%.
Same read-out and setting: the same measure for `N#CC(C#N)=NNc1ccc(I)cc1` [IPK 000 007 31]: -28.2%.

The assay is the same for the next values; noted with them: Mycobacterium tuberculosis, H37RV, Macrophage, read-out: QIM Confirm % Inhibition 0.2 uM.
Take `COc1cccc(OCCNC(=O)c2cc([N+](=O)[O-])cc([N+](=O)[O-])c2)c1` [IPK 000 027 77]: the inhibition at 0.2 µM is -12.6%.
Same read-out and setting: in the case of `N#CC(C#N)=NNc1ccc(I)cc1` [IPK 000 007 31] it was 45.7%.

The assay is the same for the next values; noted with them: Mycobacterium tuberculosis, H37RV, Macrophage, read-out: QIM Confirm % Inhibition 2 uM.
For `COc1cccc(OCCNC(=O)c2cc([N+](=O)[O-])cc([N+](=O)[O-])c2)c1` [IPK 000 027 77], the inhibition at 2 µM was 47.7%.
On the same count and under the same terms, the same measure for `N#CC(C#N)=NNc1ccc(I)cc1` [IPK 000 007 31]: 14.7%.

Staying with this assay, now noted: Mycobacterium tuberculosis, H37RV, Macrophage, read-out: QIM Confirm % Inhibition 20 uM.
`COc1cccc(OCCNC(=O)c2cc([N+](=O)[O-])cc([N+](=O)[O-])c2)c1` [IPK 000 027 77]: the inhibition at 20 µM is 86.3%.
On the same count and under the same terms, in the case of `N#CC(C#N)=NNc1ccc(I)cc1` [IPK 000 007 31] it was 25.8%.

Staying with this assay, now noted: Mycobacterium tuberculosis, H37RV, Macrophage; confirmation, 0.2 uM, intracellular; read-out: QIM Confirm % Inhibition 0.2 uM.
For `O=C(N/N=C/c1cccc2ccccc12)c1ccncc1` [IPK 000 041 46], the inhibition at 0.2 µM was determined as 41.8%.
Turning to `O=C(N/N=C/c1ccccc1O)c1ccncc1` [IPK 000 041 45], the inhibition at 0.2 µM was 56.7%.
For the molecule `CCCCS(=O)(=O)/C=C\C=C\S(=O)(=O)CCCC` [IPK 000 036 07], the inhibition at 0.2 µM came to 17.2%.
Same read-out and setting: the same measure for `CCCCc1ccc(/C=N/NC(=O)c2ccncc2)cc1` [IPK 000 013 69]: 68.9%.

Staying with this assay, now noted: Mycobacterium tuberculosis, H37RV, Macrophage; confirmation, 2 uM, intracellular; read-out: QIM Confirm % Inhibition 2 uM.
As to `O=C(N/N=C/c1cccc2ccccc12)c1ccncc1` [IPK 000 041 46], the inhibition at 2 µM was 101%.
Still for that read-out and setting: the same measure for `O=C(N/N=C/c1ccccc1O)c1ccncc1` [IPK 000 041 45]: 103%; for `CCCCS(=O)(=O)/C=C\C=C\S(=O)(=O)CCCC` [IPK 000 036 07]: 32%; for `CCCCc1ccc(/C=N/NC(=O)c2ccncc2)cc1` [IPK 000 013 69]: 105%.

Staying with this assay, now noted: Mycobacterium tuberculosis, H37RV, Macrophage; confirmation, 20 uM; read-out: QIM Confirm % Inhibition 20 uM.
On to `O=C(N/N=C/c1cccc2ccccc12)c1ccncc1` [IPK 000 041 46], for which the inhibition at 20 µM was found to be 93.3%.
On the same count and under the same terms, in the case of `O=C(N/N=C/c1ccccc1O)c1ccncc1` [IPK 000 041 45] it was 87.2%.
Same read-out and setting: in the case of `CCCCS(=O)(=O)/C=C\C=C\S(=O)(=O)CCCC` [IPK 000 036 07] it was 59.5%; in that of `CCCCc1ccc(/C=N/NC(=O)c2ccncc2)cc1` [IPK 000 013 69], 58.6%.

The assay is the same for the next values; noted with them: Mycobacterium tuberculosis, H37RV, Macrophage; primary screen, 20 μM; read-out: Primary QIM % Inhibition.
As for `O=C(N/N=C/c1cccc2ccccc12)c1ccncc1` [IPK 000 041 46], the inhibition at 20 µM was 81.2%.
Still for that read-out and setting: in the case of `O=C(N/N=C/c1ccccc1O)c1ccncc1` [IPK 000 041 45] it was 88.6%; in that of `CCCCS(=O)(=O)/C=C\C=C\S(=O)(=O)CCCC` [IPK 000 036 07], 27.7%; in that of `CCCCc1ccc(/C=N/NC(=O)c2ccncc2)cc1` [IPK 000 013 69], 91.3%.

In the next assay the test system is Raw264.7 cells. The assay can be described thus: Cell number (CellNb) from image analysis of the phenotypic cell-based assay.
Conditions: not given
As to `COc1cccc(OCCNC(=O)c2cc([N+](=O)[O-])cc([N+](=O)[O-])c2)c1` [IPK 000 027 77], the “Primary QIM CellNb” value was 378.0, the “QIM Confirm CellNb 0.2 uM” value is given as 218.1, the “QIM Confirm CellNb 2 uM” value was determined as 315.3 and the “QIM Confirm CellNb 20 uM” value stood at 322.3.
Taken in the same sequence, the figures for `N#CC(C#N)=NNc1ccc(I)cc1` [IPK 000 007 31] were 61.3, 393.1, 308.8 and 166.5.

Staying with this assay, now noted: confirmation, 0.2 uM.
`O=C(N/N=C/c1cccc2ccccc12)c1ccncc1` [IPK 000 041 46]: the “QIM Confirm CellNb 0.2 uM” value is listed as 386.9.
On the same count and under the same terms, in the case of `O=C(N/N=C/c1ccccc1O)c1ccncc1` [IPK 000 041 45] it was 437.4; in that of `CCCCS(=O)(=O)/C=C\C=C\S(=O)(=O)CCCC` [IPK 000 036 07], 267.4; in that of `CCCCc1ccc(/C=N/NC(=O)c2ccncc2)cc1` [IPK 000 013 69], 405.8.

The assay is the same for the next values; noted with them: confirmation, 2 uM.
For the molecule `O=C(N/N=C/c1cccc2ccccc12)c1ccncc1` [IPK 000 041 46], the “QIM Confirm CellNb 2 uM” value is listed as 542.6.
In the case of `O=C(N/N=C/c1ccccc1O)c1ccncc1` [IPK 000 041 45], the “QIM Confirm CellNb 2 uM” value came to 527.9.
In the case of `CCCCS(=O)(=O)/C=C\C=C\S(=O)(=O)CCCC` [IPK 000 036 07], the “QIM Confirm CellNb 2 uM” value worked out at 293.9.
The same measure, in the same setting: in the case of `CCCCc1ccc(/C=N/NC(=O)c2ccncc2)cc1` [IPK 000 013 69] it was 532.1.

Staying with this assay, now noted: confirmation, 20 uM.
As for `O=C(N/N=C/c1cccc2ccccc12)c1ccncc1` [IPK 000 041 46], the “QIM Confirm CellNb 20 uM” value was 347.1.
Same read-out and setting: in the case of `O=C(N/N=C/c1ccccc1O)c1ccncc1` [IPK 000 041 45] it was 243.8; in that of `CCCCS(=O)(=O)/C=C\C=C\S(=O)(=O)CCCC` [IPK 000 036 07], 164.4.
In the case of `CCCCc1ccc(/C=N/NC(=O)c2ccncc2)cc1` [IPK 000 013 69], the “QIM Confirm CellNb 20 uM” value is 443.3.

Still in this assay, the particulars now being: primary screen, 20 μM.
Consider `O=C(N/N=C/c1cccc2ccccc12)c1ccncc1` [IPK 000 041 46], for which the “Primary QIM CellNb” value came out at 320.0.
The same measure, in the same setting: the same measure for `O=C(N/N=C/c1ccccc1O)c1ccncc1` [IPK 000 041 45]: 324.5.
Same read-out and setting: the same measure for `CCCCS(=O)(=O)/C=C\C=C\S(=O)(=O)CCCC` [IPK 000 036 07]: 142.3; for `CCCCc1ccc(/C=N/NC(=O)c2ccncc2)cc1` [IPK 000 013 69]: 327.5.

The next assay has as its system M. tuberculosis H37Rv-GFP. The assay can be described thus: microbe, parasite or virus in culture. It is filed as cell-based. The settings on record: Mycobacterium tuberculosis, read-out: QUM Confirm % Inhibition 0.2 uM.
For the molecule `O=C(N/N=C/c1cccc2ccccc12)c1ccncc1` [IPK 000 041 46], the inhibition at 0.2 µM came to 41.1%.
Turning to `COc1cccc(OCCNC(=O)c2cc([N+](=O)[O-])cc([N+](=O)[O-])c2)c1` [IPK 000 027 77], the inhibition at 0.2 µM amounted to 40.2%.
Same read-out and setting: in the case of `N#CC(C#N)=NNc1ccc(I)cc1` [IPK 000 007 31] it was 41%; in that of `O=C(N/N=C/c1ccccc1O)c1ccncc1` [IPK 000 041 45], 38.4%.
Regarding `CCCCS(=O)(=O)/C=C\C=C\S(=O)(=O)CCCC` [IPK 000 036 07], the inhibition at 0.2 µM came to 42.3%.
`CCCCc1ccc(/C=N/NC(=O)c2ccncc2)cc1` [IPK 000 013 69]: the inhibition at 0.2 µM worked out at 51.2%.

Still in this assay, the particulars now being: Mycobacterium tuberculosis, read-out: QUM Confirm % Inhibition 2 uM.
For `O=C(N/N=C/c1cccc2ccccc12)c1ccncc1` [IPK 000 041 46], the inhibition at 2 µM was 81.4%.
`COc1cccc(OCCNC(=O)c2cc([N+](=O)[O-])cc([N+](=O)[O-])c2)c1` [IPK 000 027 77]: the inhibition at 2 µM worked out at 96.8%.
For the molecule `N#CC(C#N)=NNc1ccc(I)cc1` [IPK 000 007 31], the inhibition at 2 µM amounted to 33%.
As for `O=C(N/N=C/c1ccccc1O)c1ccncc1` [IPK 000 041 45], the inhibition at 2 µM turned out to be 47.4%.
The same measure, in the same setting: in the case of `CCCCS(=O)(=O)/C=C\C=C\S(=O)(=O)CCCC` [IPK 000 036 07] it was 47.9%; in that of `CCCCc1ccc(/C=N/NC(=O)c2ccncc2)cc1` [IPK 000 013 69], 79.1%.

Still in this assay, the particulars now being: Mycobacterium tuberculosis, read-out: QUM Confirm % Inhibition 20 uM.
With `O=C(N/N=C/c1cccc2ccccc12)c1ccncc1` [IPK 000 041 46], the inhibition at 20 µM was 57.9%.
On the same count and under the same terms, in the case of `COc1cccc(OCCNC(=O)c2cc([N+](=O)[O-])cc([N+](=O)[O-])c2)c1` [IPK 000 027 77] it was 100%; in that of `N#CC(C#N)=NNc1ccc(I)cc1` [IPK 000 007 31], 80.8%.
Same read-out and setting: the same measure for `O=C(N/N=C/c1ccccc1O)c1ccncc1` [IPK 000 041 45]: 100%; for `CCCCS(=O)(=O)/C=C\C=C\S(=O)(=O)CCCC` [IPK 000 036 07]: 70.6%; for `CCCCc1ccc(/C=N/NC(=O)c2ccncc2)cc1` [IPK 000 013 69]: 62.4%.

Source of the values: patent US8785452B2, “Anti-infective compounds” (priority 2008, dated 2014).
